Test results reported in ChEMBL document CHEMBL1201862, “PubChem BioAssay data set” (2004).
The source made the active and inactive calls.

Columns and labels:
[1] = toxicity to human hepatoma HepG2 cells – cell-based, cherry-picked samples, cytotoxicity control, dose response (AID 1159577); assay type: functional
[2] = growth inhibition of yeast DHODH-expressing 3D7 parasites – SYBR Green, dry powder samples, dose response (AID 1159570); assay type: functional, cell-based;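 also: parasite growth measured after 72 hours of compound exposure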
[3] = growth inhibition of PfATP4-mutant resistant parasites – NITD609-resistant line, SYBR Green, dry powder, dose response (AID 1159571); assay type: functional, cell-based;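 also: parasites synchronized at ring stage by sorbitol before testing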
[4] = P. falciparum Dd2 growth inhibitors, dose response, SYBR Green, cherry-picked samples (AID 1159567); assay type: functional, cell-based
[5] = Plasmodium falciparum Dd2 Sybr green parasite growth Measured in Cell-Based and Microorganism Combination System Using Plate Reader - 2153-01_Inhibitor_Dose_DryPowder_Activity_Set3.; assay type: functional
[6] = toxicity to human HepG2 hepatoma cells – cell-based, plate reader, dry powder samples, cytotoxicity control, dose response (AID 1159569); assay type: functional;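 also: inhibitor potency with signal falling toward the positive control level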
[7] = Dd2 malaria parasite growth inhibition potency – SYBR Green, dry powder samples, dose response (AID 1159566); assay type: functional, cell-based;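 also: potency for growth inhibition with lower SYBR green DNA signal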
[8] = Dd2 parasite growth inhibition in erythrocytes – SYBR Green, dry powder samples, set 9, dose response (AID 1159568); assay type: functional, cell-based
[9] = molecular target: T1, Probable nicotinate-nucleotide adenylyltransferase (Staphylococcus aureus (strain N315), UniProt P65502); assay type: functional, Staphylococcus aureus subsp. aureus N315;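 as to IC50 Mean: confirmatory dose-response retesting of NadD inhibitor hits first found in an ultra-high-throughput screen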
T1 sequence (P65502 whole entry): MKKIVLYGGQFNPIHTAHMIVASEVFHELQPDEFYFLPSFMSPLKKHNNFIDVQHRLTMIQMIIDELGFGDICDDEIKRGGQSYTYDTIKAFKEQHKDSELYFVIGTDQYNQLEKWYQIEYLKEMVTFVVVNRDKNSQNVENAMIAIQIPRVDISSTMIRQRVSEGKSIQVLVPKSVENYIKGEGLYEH

[10] = system: Streptococcus sp. 'group A'; test: Streptococcus pyogenes SK(-)GAS viability under kanamycin – luminescence, BacTiterGlo, confirmation, counter-screen for streptokinase expression inhibitor project, dose response (AID 1900); assay type: functional, organism-based
[11] = Potency on glucagon-like peptide 1 release, dose-response in NCI-H716 cell line, half maximal inhibitory concentration (AID 1117344); assay type: functional, cell-based
[12] = glucagon-like peptide-1 release potency in STC-1, concentration-response, half-maximal inhibitory concentration in the STC-1 line (AID 1117345); assay type: functional, cell-based
[13] = molecular target: T1, Probable nicotinate-nucleotide adenylyltransferase; assay type: functional, Staphylococcus aureus subsp. aureus N315; conditions: read-out: IC50_Mean
Streptokinase A = molecular target: T2, Streptokinase A (Streptococcus pyogenes serotype M1, UniProt P10520); test: viability-normalized secreted streptokinase activity reduction – plasminogen activation absorbance, OD405, dose response (AID 1914); assay type: functional, Streptococcus pyogenes M1 GAS;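 also: secreted streptokinase activity via plasminogen activation per viability signal from cell pellet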
T2 sequence (P10520 whole entry): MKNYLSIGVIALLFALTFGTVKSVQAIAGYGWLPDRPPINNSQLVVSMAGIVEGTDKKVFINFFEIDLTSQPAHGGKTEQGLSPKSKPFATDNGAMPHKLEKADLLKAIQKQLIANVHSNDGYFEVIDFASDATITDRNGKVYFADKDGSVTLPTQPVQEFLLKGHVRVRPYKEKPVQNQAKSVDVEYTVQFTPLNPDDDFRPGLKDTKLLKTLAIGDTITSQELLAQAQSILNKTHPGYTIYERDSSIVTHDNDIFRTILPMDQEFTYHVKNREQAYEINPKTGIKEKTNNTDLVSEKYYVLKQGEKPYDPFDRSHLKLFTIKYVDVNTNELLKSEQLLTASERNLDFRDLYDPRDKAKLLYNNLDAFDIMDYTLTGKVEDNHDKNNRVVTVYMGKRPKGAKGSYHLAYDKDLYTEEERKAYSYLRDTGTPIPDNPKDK

Streptococcus = test: GAS UMAA2166 growth inhibition – luminescence, BacTiterGlo, counter-screen for streptokinase expression inhibitor project, dose response (AID 1915); assay type: functional, organism-based;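 also: potency for reduction of bacterial viability or growth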
[14] = Reduced DLD-1 viability, concentration-response, CellTiter-Glo luminescence (AID 1117352); assay type: functional
[15] = rise of 2N DNA cells, HeLa – IC50, dose response (AID 1117349); assay type: functional, cell-based
[16] = SNU-C1 cell viability reduction, dose response, CellTiter-Glo luminescence (AID 1117323); assay type: functional, cell-based
[17] = rise of 4N DNA cells, HeLa – IC50, dose response (AID 1117351); assay type: functional, cell-based
[18] = HCT116 cell viability decrease, GSK3B pretreatment – CellTiter-Glo, IC50, dose response (AID 1117339); assay type: functional; conditions: HCT-116
[19] = cytotoxicity toward HCT116 cells – cell-based, CellTiter-Glo luminescence, IC50, dose response (AID 1117332); assay type: functional; conditions: HCT-116
[20] = cytotoxicity toward HT-29 cells – cell-based, CellTiter-Glo luminescence, IC50, dose response (AID 1117330); assay type: functional
Protein Tat = molecular target: T3, Protein Tat (Human immunodeficiency virus type 1 group M subtype B (isolate HXB2)(HIV-1), UniProt P04608); assay type: functional;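 also: tat binding to TAR RNA read out by fluorescence polarization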
T3 sequence (P04608 whole entry): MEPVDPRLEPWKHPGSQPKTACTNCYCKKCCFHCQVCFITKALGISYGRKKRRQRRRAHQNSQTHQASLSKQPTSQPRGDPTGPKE

[21] = molecular target: T4, Mannose-6-phosphate isomerase (Homo sapiens, UniProt P34949); test: MPI inhibition at elevated mannose 6-phosphate – biochemical, fluorescence intensity, high mannose 6-phosphate, primary screen (AID 1220)
T4 sequence (P34949 whole entry): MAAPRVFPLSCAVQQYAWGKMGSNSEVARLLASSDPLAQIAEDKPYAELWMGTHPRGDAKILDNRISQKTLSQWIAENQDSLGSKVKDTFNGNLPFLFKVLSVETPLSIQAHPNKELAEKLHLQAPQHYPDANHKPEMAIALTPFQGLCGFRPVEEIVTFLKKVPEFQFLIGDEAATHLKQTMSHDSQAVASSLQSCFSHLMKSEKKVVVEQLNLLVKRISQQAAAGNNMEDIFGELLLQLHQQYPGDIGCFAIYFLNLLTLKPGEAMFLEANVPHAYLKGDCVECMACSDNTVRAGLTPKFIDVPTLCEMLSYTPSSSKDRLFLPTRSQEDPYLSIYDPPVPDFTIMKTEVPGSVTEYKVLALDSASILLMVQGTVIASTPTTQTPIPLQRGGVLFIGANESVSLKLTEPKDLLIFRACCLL

[22] = molecular target: T4, Mannose-6-phosphate isomerase; test: MPI enzyme activity inhibition – biochemical, fluorescence intensity, coupled assay, primary screen (AID 1209)
[23] = molecular target: Glutathione-S-transferase (Schistosoma japonicum, UniProt Q26513); test: GST-antibody interaction or FRET quenching – biochemical, TR-FRET, artefact control for Vif-APOBEC3G degradation inhibitor project, dose response (AID 1117362); assay type: functional
Chain of Glutathione-S-transferase (Q26513 whole entry): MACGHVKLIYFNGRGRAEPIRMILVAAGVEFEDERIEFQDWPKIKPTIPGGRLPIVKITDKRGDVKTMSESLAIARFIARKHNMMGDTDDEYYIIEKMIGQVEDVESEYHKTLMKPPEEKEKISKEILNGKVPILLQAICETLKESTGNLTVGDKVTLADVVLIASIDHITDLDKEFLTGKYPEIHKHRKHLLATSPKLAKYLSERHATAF

Albumin = Albumin (Bos taurus, UniProt P02769); test: Counterscreen for inhibitors of T-cell receptor (TCR)-CD3 interaction: Fluorescence-based biochemical high throughput dose response assay to identify inhibitors of T-cell receptor (TCR)-CD3 interaction using a TAMRA-labeled BSA probe.; assay type: functional
Chain of Albumin (P02769 whole entry): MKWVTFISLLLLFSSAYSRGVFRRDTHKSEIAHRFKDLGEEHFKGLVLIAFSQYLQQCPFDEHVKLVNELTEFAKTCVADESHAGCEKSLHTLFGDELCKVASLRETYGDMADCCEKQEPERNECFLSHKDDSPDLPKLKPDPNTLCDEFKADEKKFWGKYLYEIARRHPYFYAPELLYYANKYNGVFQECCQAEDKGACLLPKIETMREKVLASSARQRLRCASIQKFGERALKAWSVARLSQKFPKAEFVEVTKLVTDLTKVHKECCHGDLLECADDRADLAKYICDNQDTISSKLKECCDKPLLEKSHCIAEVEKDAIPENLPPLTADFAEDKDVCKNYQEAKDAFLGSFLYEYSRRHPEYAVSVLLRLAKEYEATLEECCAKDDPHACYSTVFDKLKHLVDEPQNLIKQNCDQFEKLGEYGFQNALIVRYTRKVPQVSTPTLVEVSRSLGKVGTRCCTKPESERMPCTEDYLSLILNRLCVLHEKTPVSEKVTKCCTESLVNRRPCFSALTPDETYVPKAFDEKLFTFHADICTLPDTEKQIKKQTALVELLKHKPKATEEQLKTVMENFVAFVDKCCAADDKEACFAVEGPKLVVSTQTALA

Genome polyprotein = Genome polyprotein (dengue virus type 2, UniProt P29990); test: flavivirus cap methylation enzyme inhibition – biochemical, confirmation dose response, primary screen (AID 588689); assay type: functional
Chain of Genome polyprotein (P29990 2492-3391 limits assumed): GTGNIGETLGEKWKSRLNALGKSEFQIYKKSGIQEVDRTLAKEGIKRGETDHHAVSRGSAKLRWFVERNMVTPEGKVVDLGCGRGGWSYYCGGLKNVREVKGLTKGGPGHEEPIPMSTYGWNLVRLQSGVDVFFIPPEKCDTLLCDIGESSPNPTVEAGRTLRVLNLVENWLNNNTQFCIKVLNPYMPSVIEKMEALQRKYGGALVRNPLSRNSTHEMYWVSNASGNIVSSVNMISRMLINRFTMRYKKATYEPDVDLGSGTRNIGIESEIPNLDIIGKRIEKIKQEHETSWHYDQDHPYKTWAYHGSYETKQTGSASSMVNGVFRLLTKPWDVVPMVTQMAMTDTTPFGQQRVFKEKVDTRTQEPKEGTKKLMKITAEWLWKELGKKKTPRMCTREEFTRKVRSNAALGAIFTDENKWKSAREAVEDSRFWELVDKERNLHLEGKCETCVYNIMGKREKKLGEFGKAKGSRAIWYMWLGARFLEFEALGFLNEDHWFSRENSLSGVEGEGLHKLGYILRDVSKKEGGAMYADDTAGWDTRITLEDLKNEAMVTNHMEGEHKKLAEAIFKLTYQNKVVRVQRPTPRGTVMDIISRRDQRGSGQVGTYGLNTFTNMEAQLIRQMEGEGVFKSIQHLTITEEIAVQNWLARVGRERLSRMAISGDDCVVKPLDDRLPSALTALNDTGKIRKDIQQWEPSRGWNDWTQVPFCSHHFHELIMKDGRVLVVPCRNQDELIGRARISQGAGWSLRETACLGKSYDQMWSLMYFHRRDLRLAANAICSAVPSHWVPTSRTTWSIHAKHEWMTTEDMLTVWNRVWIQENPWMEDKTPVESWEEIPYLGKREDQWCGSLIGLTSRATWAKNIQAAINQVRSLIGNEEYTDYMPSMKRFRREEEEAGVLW

[24] = molecular target: T5, RNA-binding protein pos-1 (Caenorhabditis elegans, UniProt G5EF15); test: disruptors of C. elegans POS-1 RNA interaction – biochemical, fluorescence polarization, dose response (AID 1964);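 also: purified POS-1 fused to maltose binding protein made in E. coli; potency of compounds blocking POS-1 binding to fluorescent RNA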
T5 sequence (G5EF15 whole entry): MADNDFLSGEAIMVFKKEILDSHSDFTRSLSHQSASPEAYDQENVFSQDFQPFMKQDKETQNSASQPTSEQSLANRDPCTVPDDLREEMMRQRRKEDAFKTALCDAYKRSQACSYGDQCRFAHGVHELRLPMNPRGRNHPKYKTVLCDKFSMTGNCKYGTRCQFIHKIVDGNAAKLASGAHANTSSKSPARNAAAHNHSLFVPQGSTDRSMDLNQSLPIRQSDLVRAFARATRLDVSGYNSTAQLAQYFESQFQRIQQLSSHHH

[25] = molecular target: RNA-editing ligase 1, mitochondrial (Trypanosoma brucei brucei, UniProt P86926); test: inhibition of trypanosome RNA editing ligase – biochemical, fluorescence, Trypanosoma brucei, dose response (AID 1117295); assay type: functional
Chain of RNA-editing ligase 1, mitochondrial (P86926 whole entry): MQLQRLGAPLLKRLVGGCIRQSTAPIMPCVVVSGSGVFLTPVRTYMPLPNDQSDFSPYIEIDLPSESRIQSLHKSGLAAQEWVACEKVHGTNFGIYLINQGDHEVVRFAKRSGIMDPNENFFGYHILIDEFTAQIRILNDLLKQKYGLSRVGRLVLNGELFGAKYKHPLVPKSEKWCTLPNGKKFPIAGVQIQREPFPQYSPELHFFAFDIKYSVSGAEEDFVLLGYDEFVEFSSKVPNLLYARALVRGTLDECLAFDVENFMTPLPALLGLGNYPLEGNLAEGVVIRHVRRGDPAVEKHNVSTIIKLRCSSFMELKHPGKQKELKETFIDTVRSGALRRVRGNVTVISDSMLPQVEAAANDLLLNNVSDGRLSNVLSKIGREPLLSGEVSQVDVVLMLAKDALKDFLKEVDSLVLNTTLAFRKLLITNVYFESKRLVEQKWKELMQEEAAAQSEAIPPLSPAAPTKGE

[26] = molecular target: Glucose-6-phosphate 1-dehydrogenase (Homo sapiens, UniProt P11413); test: inhibition of Homo sapiens G6PD, dose series – biochemical, fluorescence, selectivity assay for P. falciparum G6PD inhibitor project, dose response (AID 504792); assay type: functional
Chain of Glucose-6-phosphate 1-dehydrogenase (P11413 whole entry): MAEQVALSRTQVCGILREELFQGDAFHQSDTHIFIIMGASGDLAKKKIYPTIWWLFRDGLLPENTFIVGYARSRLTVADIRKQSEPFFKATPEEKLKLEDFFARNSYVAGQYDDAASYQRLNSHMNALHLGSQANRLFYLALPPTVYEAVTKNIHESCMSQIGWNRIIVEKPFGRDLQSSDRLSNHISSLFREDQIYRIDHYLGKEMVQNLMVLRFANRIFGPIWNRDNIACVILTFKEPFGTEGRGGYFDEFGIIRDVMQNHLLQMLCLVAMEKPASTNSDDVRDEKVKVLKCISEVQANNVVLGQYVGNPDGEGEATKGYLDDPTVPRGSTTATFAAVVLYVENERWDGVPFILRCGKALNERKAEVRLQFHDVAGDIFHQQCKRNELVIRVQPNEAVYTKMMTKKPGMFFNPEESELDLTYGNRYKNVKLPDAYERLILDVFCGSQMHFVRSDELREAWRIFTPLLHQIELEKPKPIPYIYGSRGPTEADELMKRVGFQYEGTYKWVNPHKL

[27] = molecular target: Induced myeloid leukemia cell differentiation protein Mcl-1 (Homo sapiens, UniProt Q07820); assay type: functional
Chain of Induced myeloid leukemia cell differentiation protein Mcl-1 (Q07820 whole entry): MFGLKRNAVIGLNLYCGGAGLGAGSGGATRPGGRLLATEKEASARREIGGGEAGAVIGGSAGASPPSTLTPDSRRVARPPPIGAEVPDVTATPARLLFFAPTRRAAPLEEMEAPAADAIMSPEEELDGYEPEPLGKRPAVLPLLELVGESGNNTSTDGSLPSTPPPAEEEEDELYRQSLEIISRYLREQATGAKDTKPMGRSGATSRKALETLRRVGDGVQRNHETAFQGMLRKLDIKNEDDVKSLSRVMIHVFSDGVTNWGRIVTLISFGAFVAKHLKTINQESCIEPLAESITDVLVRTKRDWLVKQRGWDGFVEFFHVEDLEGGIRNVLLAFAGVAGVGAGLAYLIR

With `CC(C)NC(=O)N1[C@H](C#N)[C@H](c2ccc(-c3ccc(F)cc3)cc2)[C@H]1CO` the AC50 [1] was 25.6 µM (active), the AC50 [2] was 18.2 µM (active) and the AC50 [3] was 0.469 µM (active). The AC50 [4] was 0.858 µM (active), the AC50 [5] was 2.93 µM (active) and the AC50 [6] was 79.5 µM (active). For the same compound, the AC50 [7] was 0.442 µM (active).
In the case of `C[C@@H]1CN([C@H](C)CO)C(=O)c2c(c3ccccc3n2C)-c2ccccc2CO[C@@H]1CN(C)S(=O)(=O)c1ccc([N+](=O)[O-])cc1`, the AC50 [8] is reported as 7.62 µM (active).
In the case of `CC(C)(O)c1ccccc1CC[C@@H](SCC1(CC(=O)O)CC1)c1cccc(/C=C/c2ccc3ccc(Cl)cc3n2)c1` [MONTELUKAST SODIUM], the IC50 [9] is reported as 6.18 µM (active), the EC50 [10] is reported as 1.19 µM (active) and the IC50 [11] is reported as 20.7 µM (inactive). The IC50 [12] was > 40 µM (inactive), the IC50 [13] was 20.6 µM (active) and the EC50 (Streptokinase A) was 3.41 µM (active). The EC50 (Streptococcus) was 7.96 µM (active).
In the case of `O=Cc1ccc(O)c(O)c1O`, the IC50 [14] is reported as > 20 µM (inactive), the IC50 [15] is reported as > 10 µM (inactive) and the IC50 [16] is reported as > 20 µM (inactive). For the same compound, the IC50 [17] was > 10 µM (inactive), the IC50 [18] was 0.141 µM (active) and the IC50 [19] was > 20 µM (inactive). The IC50 [20] was > 20 µM (inactive).
In the case of `C/N=c1\scc(C)n1/N=C/c1ccc(O)c(O)c1O`, the IC50 (Protein Tat) is reported as 49.8 µM (inconclusive), the IC50 [21] is reported as > 50 µM (not active) and the IC50 [22] is reported as > 50 µM (not active). For the same compound, the IC50 [23] was > 100 µM (active), the IC50 (Albumin) was > 94.1 µM (inactive) and the IC50 (Genome polyprotein) was 13.9 µM (active). The EC50 [24] was > 300 µM (inconclusive), the IC50 [25] was > 96.6 µM (inactive) and the IC50 [26] was 44 µM (inactive). For the same compound, the IC50 [27] was 2.72 µM (active).
